Data set [1] is described as follows: Cytotoxicity in HepG 2.2.15 cells (MTT assay, nine days). The data set is classed as cell-based, human. Conditions: human, after nine days, read-out: CC50 (50% cytotoxicity concentration). On the procedure:
(§1) These synthesized compounds were evaluated for anti-HBV activity with referring to reported method. The HepG2.2.15 cell, a human hepatoblastoma cell line stably transfected with cloned HBV DNA, was obtained from Chinese Academy of Medical Sciences (Beijing, China), and was cultured in Dulbecco’s Modified Eagle’s Medium (DMEM) supplemented with 10% fetal bovine serum and 1.5 g/L of sodium bicarbonate, 10 mL/L of streptomycin, 10 mL/L of penicillin, and 200 mg/L of G418 at 37 °C in a 5% CO2 atmosphere with 95–98% humidity. Then, HepG2.2.15 cell was plated at a density of 1 × 10^5 cells/mL in 96-well plates and incubated at 37 °C for 24 h and then treated with variant concentration of compounds in […]; every three days, in a nine day period, C (OD) values were recorded at 450 nm. After nine days, the percent of cell death was measured using the method of MTT assay after drug treatment. Cytotoxicity of these compounds was expressed as the concentration of compound required to kill 50% (CC50) of the HepG 2.2.15 cells.

Data set [2] deals with HBeAg. Description: cells. Conditions: for HBeAg SI (selectivity index = CC50/IC50): CC50/IC50 for HBeAg. The method, then:
as §1
(§2) Method for the HBsAg and HBeAg Inhibition Assays. The levels of HBV surface antigen (HBsAg) and HBV e antigen (HBeAg) in the supernatant of the HepG2.2.15 cells were determined by the enzyme-linked immunosorbent assay (ELISA) according to the manufacturer’s protocol (Shanghai Kehua Biotech Co., Ltd., Shanghai, China). The synthesized compounds were expressed as the concentration that achieved 50% inhibition (IC50) to the secretion of HBsAg and HBeAg. The selectivity index (SI) was determined as the ratio of CC50 to IC50 which a major pharmaceutical parameter of estimates possible future clinical application.

The subject of data set [3] is HBsAg. In words: cells. Conditions: for HBsAg SI (selectivity index = CC50/IC50): CC50/IC50 for HBsAg. On the procedure:
as §1, §2

Data set [4] concerns HepG 2.2.15 cells. In words: Cytotoxicity in HepG 2.2.15 cells (MTT assay, nine days). The data set is classed as cell-based, human. Conditions: after nine days, read-out: CC50 (50% cytotoxicity concentration). The method, then: as §1
Where [5] appears, read: Hepatitis B virus, HepG2.2.15, read-out: HBeAg IC50.
[6] abbreviates: Hepatitis B virus, HepG2.2.15, read-out: HBsAg IC50.
Where [7] appears, read: read-out: HBeAg IC50, secretion of HBeAg, HepG 2.2.15 cells, mean ± S.E.M., n = 3.
The mark [8] stands for this setting: read-out: HBsAg IC50, secretion of HBsAg, HepG 2.2.15 cells, mean ± S.E.M., n = 3.

Where two headings read alike, the source gives them in different places.

13 molecules from PMC6600592, “Design, Synthesis, and Bioactive Screen In Vitro of Cyclohexyl (E)-4-(Hydroxyimino)-4-Phenylbutanoates and Their Ethers for Anti-Hepatitis B Virus Agents” (Molecules, 2019) can be followed below.

Consider `Nc1ccn([C@@H]2CS[C@H](CO)O2)c(=O)n1` [Compound 3TC, Lamivudine, reference compound], for which the CC50 at 9 days in data set [1] is 516 µM.

What is called IC50 is the concentration that inhibits the measured activity by half. Consider `O=C(CC/C(=N\O)c1ccccc1)OC1CCCCC1` [Compound 4A-1, Cyclohexyl (E)-4-hydroxyimino-4-phenylbutanoate], for which, in data set [2] (HepG 2.2.15 cells), the “HBeAg SI (selectivity index = CC50/IC50)” value is reported as 1.41. Besides, the IC50 is 375 ± 36.2 µM in data set [2] (setting [5]) and 506 ± 28.6 µM in data set [3] (setting [6]). The “HBsAg SI (selectivity index = CC50/IC50)” value in data set [3] (HepG 2.2.15 cells) is on record as 1.04. Besides, the CC50 at 9 days in data set [1] turned out to be 528 µM.

As for `CO/N=C(\CCC(=O)OC1CCCCC1)c1ccccc1` [Compound 4A-2, Cyclohexyl (E)-4-methoxyimino-4-phenylbutanoate], the “HBeAg SI (selectivity index = CC50/IC50)” value in data set [2] (HepG 2.2.15 cells) worked out at 5.55. The IC50 is 119 ± 13.2 µM in data set [2] (setting [5]) and 109 ± 16.1 µM in data set [3] (setting [6]). Besides, the “HBsAg SI (selectivity index = CC50/IC50)” value in data set [3] (HepG 2.2.15 cells) is reported as 6.03. The CC50 at 9 days in data set [1] was determined as 660 µM.

Take `O=C(CC/C(=N\OCc1ccccc1)c1ccccc1)OC1CCCCC1` [Compound 4A-3, Cyclohexyl (E)-4-benzyloxyimino-4-phenylbutanoate]: in data set [2] (HepG 2.2.15 cells), the “HBeAg SI (selectivity index = CC50/IC50)” value was determined as 7.53. Further, the IC50 in data set [2] (setting [5]) is 129 ± 13.6 µM; in data set [3] (setting [6]) it was 114 ± 6.15 µM. In addition, the “HBsAg SI (selectivity index = CC50/IC50)” value in data set [3] (HepG 2.2.15 cells) was 8.58. Also, the CC50 at 9 days in data set [1] stood at 974 µM.

As to `Cc1ccc(/C(CCC(=O)OC2CCCCC2)=N/O)cc1` [Compound 4B-1, Cyclohexyl (E)-4-hydroxyimino-4-(4-methylphenyl)butanoate], the “HBeAg SI (selectivity index = CC50/IC50)” value in data set [2] (HepG 2.2.15 cells) came out at 1.56. In addition, the IC50 in data set [2] (setting [5]) is 284 ± 26.7 µM; in data set [3] (setting [6]), 257 ± 16.5 µM. In addition, the “HBsAg SI (selectivity index = CC50/IC50)” value in data set [3] (HepG 2.2.15 cells) is reported as 1.72. The CC50 at 9 days in data set [1] came out at 444 µM.

Regarding `Cc1ccc(/C(CCC(=O)OC2CCCCC2)=N/OCc2ccccc2)cc1` [Compound 4B-3, Cyclohexyl (E)-4-benzyloxyimino-4-(4-methylphenyl)butanoate], the “HBeAg SI (selectivity index = CC50/IC50)” value in data set [2] (HepG 2.2.15 cells) turned out to be 10.16. The concentration for half-maximal inhibition (IC50) in data set [2] (setting [5]) turned out to be 84.6 ± 6.6 µM; in data set [3] (setting [6]), 78.5 ± 9.87 µM. Also, the “HBsAg SI (selectivity index = CC50/IC50)” value in data set [3] (HepG 2.2.15 cells) stood at 10.95. In data set [1], the CC50 at 9 days worked out at 860 µM.

Consider `COc1ccc(/C(CCC(=O)OC2CCCCC2)=N/O)cc1` [Compound 4C-1, Cyclohexyl (E)-4-hydroxyimino-4-(4-methoxyphenyl)butanoate], for which the “HBeAg SI (selectivity index = CC50/IC50)” value in data set [2] (HepG 2.2.15 cells) is listed as 1.19. In addition, the IC50 in data set [2] (setting [5]) stood at 405 ± 4.8 µM; in data set [3] (setting [6]), 489 ± 11.2 µM. In addition, in data set [3] (HepG 2.2.15 cells), the “HBsAg SI (selectivity index = CC50/IC50)” value stood at 0.98. Moreover, the CC50 at 9 days in data set [1] is 481 µM.

For `CO/N=C(\CCC(=O)OC1CCCCC1)c1ccc(OC)cc1` [Compound 4C-2, Cyclohexyl (E)-4-methoxyimino-4-(4-methoxyphenyl)butanoate], in data set [2] (HepG 2.2.15 cells), the “HBeAg SI (selectivity index = CC50/IC50)” value was 4.92. Further, the IC50 was found to be 128 ± 34.6 µM in data set [2] (setting [5]) and 106 ± 8.67 µM in data set [3] (setting [6]). Moreover, in data set [3] (HepG 2.2.15 cells), the “HBsAg SI (selectivity index = CC50/IC50)” value is on record as 5.94. Also, the CC50 at 9 days in data set [1] stood at 630 µM.

Consider `COc1ccc(/C(CCC(=O)OC2CCCCC2)=N/OCc2ccccc2)cc1` [Compound 4C-3, Cyclohexyl (E)-4-benzyloxyimino-4-(4-methoxyphenyl)butanoate], for which the “HBeAg SI (selectivity index = CC50/IC50)” value in data set [2] (HepG 2.2.15 cells) worked out at 5.20. Besides, the half-inhibitory concentration (IC50) in data set [2] (setting [5]) was determined as 130 ± 21.5 µM; in data set [3] (setting [6]) it was 112 ± 7.25 µM. Also, in data set [3] (HepG 2.2.15 cells), the “HBsAg SI (selectivity index = CC50/IC50)” value was determined as 6.08. The CC50 at 9 days in data set [1] turned out to be 678 µM.

Turning to `CO/N=C(\CCC(=O)OC1CCCCC1)c1ccc(Cl)cc1` [Compound 4D-2, Cyclohexyl (E)-4-methoxyimino-4-(4-chlorophenyl)butanoate], the “HBeAg SI (selectivity index = CC50/IC50)” value in data set [2] (HepG 2.2.15 cells) was 6.83. Also, the IC50 was determined as 85.1 ± 11.9 µM in data set [2] (setting [5]) and 67.7 ± 8.81 µM in data set [3] (setting [6]). Further, the “HBsAg SI (selectivity index = CC50/IC50)” value in data set [3] (HepG 2.2.15 cells) came to 8.59. For the same molecule, the CC50 at 9 days in data set [1] amounted to 581 µM.

As for `O=C(CC/C(=N\OCc1ccccc1)c1ccc(Cl)cc1)OC1CCCCC1` [Compound 4D-3, Cyclohexyl (E)-4-benzyloxyimino-4-(4-chlorophenyl)butanoate], the “HBeAg SI (selectivity index = CC50/IC50)” value in data set [2] (HepG 2.2.15 cells) was found to be 6.25. Moreover, the values for the concentration for half-maximal inhibition (IC50) in data set [2] (setting [5]) and in data set [3] (setting [6]) were 96.8 ± 5.13 µM and 92.6 ± 4.94 µM, respectively. Also, the “HBsAg SI (selectivity index = CC50/IC50)” value in data set [3] (HepG 2.2.15 cells) is on record as 6.53. In addition, the CC50 at 9 days in data set [1] worked out at 604 µM.

For the molecule “Cyclohexyl (E)-4-hydroxyimino-4-(4-chlorophenyl)butanimidate [Compound 4D-1]”, the IC50 in data set [2] (setting [7]) stood at 373 ± 16.9 µM; in data set [3] (setting [8]), 352 ± 11 µM. Moreover, the CC50 in data set [4] came to 396 µM.

“Cyclohexyl (E)-4-methoxyimino-4-(4-methoxyphenyl)butanoate [Compound 4B-2]”: the IC50 in data set [2] (setting [7]) amounted to 49.4 ± 4.17 µM; in data set [3] (setting [8]), 63.9 ± 6.26 µM. Moreover, in data set [4], the CC50 amounted to 856 µM.
